Laboratory results taken from PubChem BioAssay AID1963431 (Molecular Pharmacology Branch, DTP, NCI, 2024).

System: Rh18 complex spheroid viability, percent test/control
Assay: Anticancer human tumor Rh18 cell line growth inhibition [Asc];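 note: spheroids exposed to compound for 7 days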;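 for viability, T/C: 100% = DMSO vehicle control wells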
Details: for IC50: curve of first compound; for viability, T/C: stronger effect = lower value
Outline: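 Concentration series start at each agent's clinical Cmax, or at 10 microM when none is established, and drop in half-log steps; agents are applied alone or together to complex spheroids built with HUVEC and hMSC.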

[1] = second compound 0.1 µM, first compound 0.00316 µM
[2] = second compound 0.1 µM, first compound 0.01 µM
[3] = second compound 0.1 µM, first compound 0.0316 µM
[4] = second compound 0.1 µM, first compound 0.1 µM
[5] = second compound 0.1 µM, first compound 0.316 µM
[6] = second compound 0.1 µM, first compound 1 µM
[7] = second compound 0.316 µM, first compound 0.00316 µM
[8] = second compound 0.316 µM, first compound 0.01 µM
[9] = second compound 0.316 µM, first compound 0.0316 µM
[10] = second compound 0.316 µM, first compound 0.1 µM
[11] = second compound 0.316 µM, first compound 0.316 µM
[12] = second compound 0.316 µM, first compound 1 µM
[13] = second compound 1 µM, first compound 0.00316 µM
[14] = second compound 1 µM, first compound 0.01 µM
[15] = second compound 1 µM, first compound 0.0316 µM
[16] = second compound 1 µM, first compound 0.1 µM
[17] = second compound 1 µM, first compound 0.316 µM
[18] = second compound 1 µM, first compound 1 µM
[19] = second compound 3.16 µM, first compound 0.00316 µM
[20] = second compound 3.16 µM, first compound 0.01 µM
[21] = second compound 3.16 µM, first compound 0.0316 µM
[22] = second compound 3.16 µM, first compound 0.1 µM
[23] = second compound 3.16 µM, first compound 0.316 µM
[24] = second compound 3.16 µM, first compound 1 µM
[25] = second compound 10 µM, first compound 0.00316 µM
[26] = second compound 10 µM, first compound 0.01 µM
[27] = second compound 10 µM, first compound 0.0316 µM
[28] = second compound 10 µM, first compound 0.1 µM
[29] = second compound 10 µM, first compound 0.316 µM
[30] = second compound 10 µM, first compound 1 µM

| IC50 (second compound 0.1 µM) | IC50 (second compound 0.316 µM) | IC50 (second compound 1 µM) | IC50 (second compound 3.16 µM) | IC50 (second compound 10 µM) | SMILES | viability, T/C [1] | viability, T/C [2] | viability, T/C [3] | viability, T/C [4] | viability, T/C [5] | viability, T/C [6] | viability, T/C [7] | viability, T/C [8] | viability, T/C [9] | viability, T/C [10] | viability, T/C [11] | viability, T/C [12] | viability, T/C [13] | viability, T/C [14] | viability, T/C [15] | further results |
| --- | --- | --- | --- | --- | --- | --- | --- | --- | --- | --- | --- | --- | --- | --- | --- | --- | --- | --- | --- | --- | --- |
| < 3.16 nM | < 3.16 nM | < 3.16 nM | < 3.16 nM | < 3.16 nM | CCN1CCN(Cc2ccc(Nc3ncc(F)c(-c4cc(F)c5nc(C)n(C(C)C)c5c4)n3)nc2)CC1 + Cc1c(S(C)(=O)=O)c(-c2cc(F)cc(N3CCN(c4ccc(NS(=O)(=O)c5ccc(NC(CCN6CCC(C(=O)OCCCP(=O)(O)O)CC6)CSc6ccccc6)c(S(=O)(=O)C(F)(F)F)c5)cc4)CC3)c2)c(-c2ccc(Cl)cc2)n1C(C)C | 12.9% | 10.8% | 12.1% | 10.3% | 17.6% | 16.5% | 9.27% | 8.57% | 8.42% | 8.33% | 9.57% | 13.1% | 7.77% | 7.58% | 7.78% | viability, T/C [16]: 7.11%; viability, T/C [17]: 8.27%; viability, T/C [18]: 11.2%; viability, T/C [19]: 5.69%; viability, T/C [20]: 6.84%; viability, T/C [21]: 6.29%; viability, T/C [22]: 6.51%; viability, T/C [23]: 6.86%; viability, T/C [24]: 8.35%; viability, T/C [25]: 4.28%; viability, T/C [26]: 4.29%; viability, T/C [27]: 5.21%; viability, T/C [28]: 7.08%; viability, T/C [29]: 6.28%; viability, T/C [30]: 10.4% |
| < 3.16 nM | < 3.16 nM | < 3.16 nM | < 3.16 nM | < 3.16 nM | COc1c(OCCCN2CCOCC2)ccc2c3n(c(=NC(=O)c4cnc(N)nc4)nc12)CCN3 + Cc1c(S(C)(=O)=O)c(-c2cc(F)cc(N3CCN(c4ccc(NS(=O)(=O)c5ccc(NC(CCN6CCC(C(=O)OCCCP(=O)(O)O)CC6)CSc6ccccc6)c(S(=O)(=O)C(F)(F)F)c5)cc4)CC3)c2)c(-c2ccc(Cl)cc2)n1C(C)C | 17.1% | 9.25% | 5.96% | 2.81% | 0.62% | 0.45% | 7.85% | 8.34% | 4.97% | 1.98% | 0.56% | 0.49% | 8.6% | 6.08% | 4.68% | viability, T/C [16]: 1.06%; viability, T/C [17]: 0.44%; viability, T/C [18]: 0.48%; viability, T/C [19]: 5.39%; viability, T/C [20]: 5.31%; viability, T/C [21]: 3.11%; viability, T/C [22]: 0.45%; viability, T/C [23]: 0.35%; viability, T/C [24]: 0.46%; viability, T/C [25]: 3.54%; viability, T/C [26]: 5%; viability, T/C [27]: 2.62%; viability, T/C [28]: 0.51%; viability, T/C [29]: 0.53%; viability, T/C [30]: 0.49% |
